# In patent US20230057359A1, “NOVEL USE OF STEVIOL” (SUNTORY HOLDINGS LIMITED, priority 2019, published 2023):
# Key:
# Type in all cases: cell-based
# [1] = test system: adipocytes differentiated from normal human subcutaneous preadipocytes; test: Sugar uptake test in adipocytes (intracellular 2DG6P, Glucose Uptake-Glo); settings: 100 μM acadesine (AICAR), 4 hours, No addition=100%
# Description: Normal human subcutaneous preadipocytes were precultured using the growth medium in the same manner as in Example 1. The cells were detached using 0.25% trypsin-EDTA, seeded at 10,000 cells/100 μL/well to a 96-well plate using the growth medium, and cultured overnight in a CO2 incubator. On the next day, the medium was replaced with the differentiation medium (100 μL). The cells were cultured for 10 days in a CO2 incubator to induce their differentiation into adipocytes. On the fourth and seventh days after the differentiation induction, the medium was replaced with a fresh differentiation medium (100 μL). Next, the medium was replaced with 100 μLL of a serum-free medium (PBM-2 medium supplemented with 2 mM L-glutamine, 50 μg/mL gentamycin, and 37 ng/mL amphotericin-B, Cat. No. PT-8002, Lonza Group AG), and the cells were cultured for 18 hours in a CO2 incubator. Subsequently, the medium was replaced with 100 μL of a glucose-free serum-free medium (DMEM, no glucose, Cat. No. 11966025, Thermo Fisher Scientific Inc.) supplemented with varying concentrations of steviol (10, 30 or 100 μg/mL, dissolved in 0.1% DMSO (final concentration)), and the cells were cultured for 4 hours in a CO2 incubator. A glucose-free serum-free medium supplemented with 100 μM acadesine (AICAR, Cat. No. A9978, Sigma-Aldrich Co., LLC) was used as a positive control, and a vehicle control composed of a glucose-free serum-free medium supplemented with 0.1% DMSO (final concentration) and a no-addition control composed of only a glucose-free serum-free medium were used as negative controls. After culture, intracellular 2-deoxyglucose-6-phosphate (2DG6P, 2-deoxyglucose (2DG) phosphorylation product) level was measured by the following procedures using Glucose Uptake-Glo Assay kit (Cat. No. J1341, Promega Corp.). The medium of each well was replaced with a DPBS solution (50 μL) supplemented with 1 mM 2DG. After incubation at room temperature for 10 minutes, a stop buffer (25 μL), a neutralization buffer (25 μL), and a 2DG6P detection reagent (100 μL) were added thereto. After incubation at room temperature for 60 minutes, luminescence intensity was measured using a plate reader (VARIOSKAN FLASH, Thermo Fisher Scientific Inc.), and relative luminescence intensity was regarded as a relative intracellular 2DG6P level. Significant difference among the test groups to be compared (no-addition group vs positive control group, vehicle control group vs steviol addition group) was tested by the Student's t test. The two-tailed test was conducted, and P<0.05 was regarded as having significant difference.
# [2] = test system: adipocytes differentiated from normal human subcutaneous preadipocytes; test: Lipolysis test in adipocytes (free glycerol in culture supernatant); settings: 10 μM isoproterenol, 24 hours, No addition=100%
# Description: Normal human subcutaneous preadipocytes were precultured using the growth medium in the same manner as in Example 1. The cells were detached using 0.25% trypsin-EDTA, seeded at 10,000 cells/100 μL/well to a 96-well plate using the growth medium, and cultured overnight in a CO2 incubator. On the next day, the medium was replaced with the differentiation medium (100 μL), and the cells were cultured for 10 days in a CO2 incubator to induce their differentiation into adipocytes. On the fourth and seventh days after the differentiation induction, the medium was replaced with a fresh differentiation medium (100 μL). Next, the medium was replaced with a differentiation medium supplemented with varying concentrations of steviol (10, 30 or 100 μg/mL, dissolved in 0.1% DMSO (final concentration)), and the cells were cultured for 24 hours in a CO2 incubator. Then, a free glycerol level in a culture supernatant was measured using Adipolysis Assay Kit (Cat. No. 10009381, Cayman Chemical Co.) according to the manufacturer's protocol. For the measurement, absorbance (540 nm) was measured using a plate reader (VARIOSKAN FLASH, Thermo Fisher Scientific Inc.), and a relative free glycerol concentration was calculated. A differentiation medium supplemented with 10 μM isoproterenol (ISP) was used as a positive control, and a vehicle control (DMSO) composed of a differentiation medium supplemented with 0.1% DMSO (final concentration) and a no-addition control composed of only the differentiation medium were used as negative controls. Significant difference among the test groups to be compared (no-addition group vs positive control group, vehicle control group vs steviol addition group) was tested by the Student's t test. The two-tailed test was conducted, and P<0.05 was regarded as having significant difference.
# [3] = test system: normal human subcutaneous preadipocytes differentiated into adipocytes; test: Fat accumulation test in adipocytes (oil red staining); settings: 25 mM LiCl, 10 days, DMSO=100%
# Description: Normal human subcutaneous preadipocytes were precultured using the growth medium in the same manner as in Example 1. The cells were detached using 0.25% trypsin-EDTA, seeded at 10,000 cells/100 μL/well to a 96-well plate using a growth medium, and cultured overnight in a CO2 incubator. On the next day, the medium was replaced with 100 μL of a differentiation medium supplemented with varying concentrations of steviol (12.5, 25, 50, 100 or 200 μg/mL, dissolved in 0.1% DMSO (final concentration)). The cells were cultured for 10 days in a CO2 incubator to induce their differentiation into adipocytes. On the fourth and seventh days after the differentiation induction, the medium was replaced with a fresh medium (100 μL) having the same composition as above. A differentiation medium supplemented with 25 mM LiCl (Cat. No. SML0559, Sigma-Aldrich Co., LLC) was used as a positive control, and a differentiation medium supplemented with 0.1% DMSO (final concentration) was used as a negative control. Cells cultured in a growth medium were used as an untreated control (Untreated). The cells thus cultured were subjected to oil red staining. Specifically, the cells were washed twice with 100 μL of DPBS (Cat. No. 14190250, Thermo Fisher Scientific Inc.). Then, the cells were fixed (room temperature, 10 min) in 100 μL of a 10% formalin solution (Cat. No. 061-00416, FUJIFILM Wako Pure Chemical Corp.). The cells were washed twice with 100 μL of DPBS, then incubated for 1 minute in 100 μL of 60% 2-propanol (Cat. No. 166-04836, FUJIFILM Wako Pure Chemical Corp.) that replaced the medium, and stained for 15 minutes in 100 μL of an oil red staining solution (Cat. No. 00625, Sigma-Aldrich Co., LLC) that replaced the 2-propanol solution. The cells were washed once with 100 μL of 60% 2-propanol and washed twice with 100 μL of DPBS. Then, cell images were taken in 100 μL of DPBS. After subsequent replacement with 120 μL of 100% 2-propanol, oil red was extracted by incubation for 5 minutes, and 100 μL of the extracts was transferred to each well of a fresh 96-well plate. Absorbance (520 nm) was measured using a plate reader (VARIOSKAN FLASH, Thermo Fisher Scientific Inc.), and a relative fat accumulation level was calculated. Significant difference of differentiation non-induced group vs differentiation induced group (negative control group) was tested (two-tailed), and P<0.05 was regarded as having significant difference. Also, significant difference of negative control group vs steviol addition group/positive control group was tested (two-tailed) by the Dunnett test, and P<0.05 was regarded as having significant difference.
# HepG2 cells [4] = test: Fat accumulation test in hepatocytes (oil red staining, oleic acid); settings: 2 mM metformin, 0.2 mM oleic acid, 24 hours, DMSO=100%
# Description: Normal human subcutaneous preadipocytes were precultured using the growth medium in the same manner as in Example 1. The cells were detached using 0.25% trypsin-EDTA, seeded at 10,000 cells/100 μL/well to a 96-well plate using a growth medium, and cultured overnight in a CO2 incubator. On the next day, the medium was replaced with 100 μL of a differentiation medium supplemented with varying concentrations of steviol (12.5, 25, 50, 100 or 200 μg/mL, dissolved in 0.1% DMSO (final concentration)). The cells were cultured for 10 days in a CO2 incubator to induce their differentiation into adipocytes. On the fourth and seventh days after the differentiation induction, the medium was replaced with a fresh medium (100 μL) having the same composition as above. A differentiation medium supplemented with 25 mM LiCl (Cat. No. SML0559, Sigma-Aldrich Co., LLC) was used as a positive control, and a differentiation medium supplemented with 0.1% DMSO (final concentration) was used as a negative control. Cells cultured in a growth medium were used as an untreated control (Untreated). The cells thus cultured were subjected to oil red staining. Specifically, the cells were washed twice with 100 μL of DPBS (Cat. No. 14190250, Thermo Fisher Scientific Inc.). Then, the cells were fixed (room temperature, 10 min) in 100 μL of a 10% formalin solution (Cat. No. 061-00416, FUJIFILM Wako Pure Chemical Corp.). The cells were washed twice with 100 μL of DPBS, then incubated for 1 minute in 100 μL of 60% 2-propanol (Cat. No. 166-04836, FUJIFILM Wako Pure Chemical Corp.) that replaced the medium, and stained for 15 minutes in 100 μL of an oil red staining solution (Cat. No. 00625, Sigma-Aldrich Co., LLC) that replaced the 2-propanol solution. The cells were washed once with 100 μL of 60% 2-propanol and washed twice with 100 μL of DPBS. Then, cell images were taken in 100 μL of DPBS. After subsequent replacement with 120 μL of 100% 2-propanol, oil red was extracted by incubation for 5 minutes, and 100 μL of the extracts was transferred to each well of a fresh 96-well plate. Absorbance (520 nm) was measured using a plate reader (VARIOSKAN FLASH, Thermo Fisher Scientific Inc.), and a relative fat accumulation level was calculated. Significant difference of differentiation non-induced group vs differentiation induced group (negative control group) was tested (two-tailed), and P<0.05 was regarded as having significant difference. Also, significant difference of negative control group vs steviol addition group/positive control group was tested (two-tailed) by the Dunnett test, and P<0.05 was regarded as having significant difference. […] HepG2 cells were precultured using the growth medium in the same manner as in Example 5. The cells were detached using 0.25% trypsin-EDTA, seeded at 30,000 cells/100 μL/well to a 96-well plate using the growth medium, and cultured overnight in a CO2 incubator. On the next day, the medium was replaced with 100 μL of a test medium (DMEM (high glucose) supplemented with 0.2 mM oleic acid (Cat. No. 03008, Sigma-Aldrich), 10% FBS and 1% penicillin-streptomycin) supplemented with varying concentrations of steviol (12.5, 25, 50, 100 or 200 μg/mL, dissolved in 0.1% DMSO (final concentration)). The cells were cultured for 24 hours in a CO2 incubator. A test medium supplemented with 2 mM metformin (Cat. No. M2009, Tokyo Chemical Industry Co., Ltd.) was used as a positive control (Metformin), and a vehicle control composed of a test medium supplemented with 0.1% DMSO (final concentration) was used as a negative control (DMSO). Cells cultured in a test medium containing no oleic acid was used as an untreated control (Untreated). The cells thus cultured were subjected to oil red staining in the same manner as in Example 3, followed by photographing and calculation of a relative fat accumulation level. […]
# HepG2 cells [5] = test: TG accumulation test in hepatocytes (Adipogenesis Assay Kit, oleic acid); settings: 2 mM metformin, 0.2 mM oleic acid, 24 hours, DMSO=100%
# Description: HepG2 cells were precultured using the growth medium in the same manner as in Example 5. The cells were detached using 0.25% trypsin-EDTA, seeded at 30,000 cells/100 μL/well to a 96-well plate using the growth medium, and cultured overnight in a CO2 incubator. On the next day, the medium was replaced with 100 μL of a test medium (DMEM (high glucose) supplemented with 0.2 mM oleic acid (Cat. No. 03008, Sigma-Aldrich), 10% FBS and 1% penicillin-streptomycin) supplemented with varying concentrations of steviol (12.5, 25, 50, 100 or 200 μg/mL, dissolved in 0.1% DMSO (final concentration)). The cells were cultured for 24 hours in a CO2 incubator. A test medium supplemented with 2 mM metformin (Cat. No. M2009, Tokyo Chemical Industry Co., Ltd.) was used as a positive control (Metformin), and a vehicle control composed of a test medium supplemented with 0.1% DMSO (final concentration) was used as a negative control (DMSO). Cells cultured in a test medium containing no oleic acid was used as an untreated control (Untreated). The cells thus cultured were subjected to oil red staining in the same manner as in Example 3, followed by photographing and calculation of a relative fat accumulation level. An intracellular triglyceride (TG) level in cells separately cultured under the same conditions as in the cells employed in the oil red staining was quantified using Adipogenesis Assay Kit (BioVision Inc.) according to the manufacturer's protocol. Absorbance (570 nm) was measured using a plate reader (VARIOSKAN FLASH, Thermo Fisher Scientific Inc.), and a relative TG level was calculated. Significant difference of untreated group vs fat accumulation induction group (negative control group) was tested (two-tailed) by the Student's t test as to the relative fat accumulation level and the relative TG level, and P<0.05 was regarded as having significant difference. Also, significant difference of negative control group vs steviol addition group/positive control group was tested (two-tailed) by the Dunnett test, and P<0.05 was regarded as having significant difference. The results of the fat accumulation test are shown in Table 6 and FIG. 6, and the results of the TG accumulation test are shown in Table 7 and FIG. 7.
smiles,measurement,setting,value
"NC(=O)c1ncn([C@@H]2O[C@H](CO)[C@@H](O)[C@H]2O)c1N [AICAR, acadesine, reference compound]",Relative luminescence intensity (%) (relative intracellular 2DG6P level),[1],194.9%
"CC(C)NCC(O)c1ccc(O)c(O)c1 (centres unmarked) [ISP, isoproterenol, reference compound]",Relative lipolysis level (%),[2],184.4%
"[Cl-].[Li+] [LiCl, reference compound]",Relative fat accumulation level (%),[3],56.3%
"CN(C)C(=N)N=C(N)N [Metformin, metformin, reference compound]",Relative fat accumulation level (%),HepG2 cells [4],79.4%
same,Relative TG level (%),HepG2 cells [5],76.0%
